In PubChem BioAssay AID434934 (The Scripps Research Institute Molecular Screening Center, 2010):
Where “and” joins values, the source holds several entries; their conditions need not be identical. Equal entries are not always repeated. Calls of active or inactive are those of the source.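 Rule for the calls: active = IC50 at or below 10 µM; inactive = IC50 above 10 µM.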

What follows are molecules tested on NIH 3T3 viability, CellTiter-Glo ATP luminescence (assay: cytotoxicity in NIH 3T3 fibroblasts, late-stage follow-up, cytotoxicity control for TPT1 inhibitor project, cell-based, luminescence, dose response (AID 434934)).
For `OC(Cn1cncn1)(Cn1cncn1)c1ccc(F)cc1F`, the IC50 was > 26.5 µM (inactive).
In the case of `O=c1oc2c(O)c(O)cc3c(=O)oc4c(O)c(O)cc1c4c23`, the IC50 is reported as > 26.5 µM (inactive).
For `Cc1ccccc1N1C(=O)/C(=C/c2ccco2)C(=O)NC1=S`, the IC50 was 46.1 µM (inactive) and 34.3 µM (inactive).
With `CC1=C(C#N)C(=O)N(C2CCS(=O)(=O)C2)C(=O)/C1=C\c1ccco1` (stereo not given) the IC50 was 20.4 µM (inactive).
`COc1ccc(OC)c(N2C(=O)/C(=C/c3ccco3)C(=O)NC2=S)c1` was tested, and the IC50 was 73.9 µM (inactive).
Molecule `Cc1[nH]n(-c2ccc(S(=O)(=O)O)cc2)c(=O)c1N[N-]c1ccc(C2=CC(=O)/C(=N\[N-]c3ccc4c(S(=O)(=O)O)cc(S(=O)(=O)O)c(N)c4c3O)C=C2)cc1O.[Cu+].[Cu+]` has an IC50 of 1.82 µM.
`Cc1ccc(N2C(=O)NC(=O)/C(=C\c3ccc([N+](=O)[O-])o3)C2=O)cc1` was tested, and the IC50 was 23.2 µM (inactive).
For `NS(=O)(=O)c1cc(C(=O)NC2CCSc3ccccc32)ccc1Cl` (stereo not given), the IC50 was > 79.4 µM (inactive).
With `Cc1cc(C)n(Cc2ccc(C(=O)NN=Cc3ccc(-c4ccc([N+](=O)[O-])cc4)o3)o2)n1` the IC50 was > 79.4 µM (inactive).
For `NC(=O)c1cc[n+](CC2=C(C(=O)O)N3C(=O)[C@@H](NC(=O)C(c4ccccc4)S(=O)(=O)O)[C@H]3SC2)cc1` (stereo not given in full), the IC50 was > 79.4 µM (inactive).
